What all share (assay): DTP human tumour cell line panel, 48 h
In test [1] the test system is A498 renal.
In test [2] the test system is CAKI-1 renal.
Test [3] has as its system COLO 205 colon.
Test [4] has as its system HOP-62 NSCLC.
The subject of test [5] is IGROV1 ovarian.
In test [6] the test system is MDA-MB-435.
Test [7] relates to NCI-H460 lung.
The test system of test [8] is SF-268 CNS.
Test [9] has as its system TK-10 renal.
Test [10] has as its system U251 CNS.
The subject of test [11] is UO-31 renal.

A word on the TGI: it is the concentration at which net growth stops. A higher TGI goes with lower sensitivity of the cells.

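In this assay, cells in 96-well plates receive the compound at five concentrations for 48 hours. Endpoints are linearly interpolated between the surrounding concentrations. TGI denotes the concentration required for complete inhibition of growth.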 Bounds are passed on as bounds.

Regarding `C/C(=N/NC(=S)Nc1cccc(C)c1)c1ccccn1`, the concentration for total growth inhibition (TGI) was 3.54 µM in [1]; 9.07 µM in [2]; 1.34 µM in [3]; 4.98 µM in test [4]; 4.68 µM in [5]; 3.5 µM in test [6]. Besides, the TGI was determined as 5.59 µM in test [7]; 13.9 µM in test [8]; 4.98 µM in test [9]; 4.89 µM in test [10]; 6 µM in test [11].
With `O=C1OC[C@@H]2Cc3c([nH]c4ccccc34)[C@@H](c3ccc(O)cc3)N12`, the TGI in test [1] is more than 81 µM; in [2] it was 97.5 µM; in test [3], 40.9 µM; in test [4] it was more than 84.6 µM; in test [5], 61.1 µM; in test [6], 68.2 µM. The concentration for total growth inhibition (TGI) is 81.4 µM in [7]; more than 100 µM in test [8]; more than 100 µM in test [9]; more than 100 µM in test [10]; more than 100 µM in [11].
On to `O=C(CCc1ccc(O)cc1)c1c(O)cc(O)cc1OC1OC(CO)C(O)C(O)C1O` (centres undefined), for which the concentration for total growth inhibition (TGI) in [1], in test [2], in test [3], in [4], in test [5] and in test [6] was more than 100 µM each time. Moreover, the TGI in test [8], in [9] and in [11] was more than 100 µM in each case.
For the compound `CCOP(=O)(OCC)/C(F)=C/c1ccccc1`, the TGI in test [1], in test [2], in [3], in test [4], in test [5] and in test [6] was more than 100 µM throughout. Moreover, the total growth inhibition concentration (TGI) in [7], in test [8], in test [9], in test [10] and in [11] was more than 100 µM each time.
Take `NCCCC(N)C(=O)O` (centres undefined): the concentration for total growth inhibition (TGI) in test [1], in [2], in test [3], in [4], in test [5] and in test [6] was more than 100 µM throughout. For the same compound, the TGI in [7], in test [8], in [9], in test [10] and in test [11] was more than 100 µM each time.
As for `Cc1oc2nc(N(C)C)n3nnnc3c2c1C`, the total growth inhibition concentration (TGI) in test [1], in test [2], in [3], in [5], in [6] and in test [8] was more than 100 µM throughout. The TGI in test [9], in test [10] and in [11] was more than 100 µM throughout.
On to `CCOC(=O)c1cnc2[nH]ccn2c1=O`, for which the TGI in test [1], in test [2], in [3], in test [4], in [5] and in test [6] was more than 10 µM throughout. Besides, the TGI in [7], in test [8], in test [9], in test [10] and in [11] was more than 10 µM each time.
As to `O=C1C(Br)=Cc2c(Cl)sc(Cl)c21`, the TGI in test [1] came to 52.1 µM; in test [2], 8.99 µM; in test [3] it was 23.6 µM; in [4], 28.6 µM; in [5], 7.67 µM; in test [6], 5.43 µM. Besides, the TGI is 53.3 µM in test [7]; more than 28 µM in test [8]; 5.23 µM in test [9]; 7.53 µM in test [10]; 9.14 µM in test [11].
`C(=Nc1ccc(-c2nc3ccccc3s2)cc1)c1ccco1`: the concentration for total growth inhibition (TGI) in test [1] was 99.3 µM; in test [2], more than 100 µM; in [3] it was more than 100 µM; in test [4] it was more than 100 µM; in test [5], more than 100 µM; in [6] it was more than 100 µM. Also, the total growth inhibition concentration (TGI) in [7] was more than 100 µM; in [8], more than 100 µM; in test [9] it was 8.51 µM; in [10], more than 100 µM; in [11] it was more than 100 µM.
As for `COc1ccc2c(c1)C(=O)c1ccccc1C2`, the TGI in test [1], in [2], in test [3], in [4], in test [5] and in test [6] was more than 100 µM each time. The TGI in [7], in [8], in test [9], in [10] and in [11] was more than 100 µM each time.
For the compound `CCn1c(=O)c2c3cc(O)ccc3oc2c2ccc(O)cc21`, the TGI is 55.5 µM in test [1]; more than 100 µM in [2]; 43.9 µM in test [3]; more than 100 µM in [4]; more than 100 µM in [5]; more than 100 µM in test [6]. The TGI in [7] was more than 100 µM; in [8] it was more than 100 µM; in test [9] it was more than 100 µM; in test [10] it was more than 100 µM; in test [11], 46.6 µM.
On to `O=C1N[C@@H]2c3c(csc3Br)C(=O)[C@@H]2O1`, for which the concentration for total growth inhibition (TGI) in [1] was more than 100 µM; in test [2] it was 43.1 µM; in [3] it was more than 100 µM; in test [4], more than 100 µM; in test [5], more than 100 µM; in [6] it was 46.9 µM. The TGI in [7] was more than 100 µM; in [8] it was more than 100 µM; in [9] it was 80.3 µM; in test [10], 69.2 µM; in test [11], 58.4 µM.
`O=C(O)c1ccc(NS(=O)(=O)Cc2ccccc2)cc1`: the total growth inhibition concentration (TGI) in [1], in test [2], in [3], in [4], in test [5] and in test [6] was more than 100 µM each time. Also, the total growth inhibition concentration (TGI) in test [7], in [8], in [9], in test [10] and in [11] was more than 100 µM in each case.

The values are drawn from PubChem BioAssay (NCI).
